The test deals with cardiac allograft rejection. As to the kind of experiment: Heart transplant rejection mouse model (C57/BL6 heart into Balb/c recipient, total MHC mismatch). The note with it: Compound 1 alone, 75 mg/kg/day for fourteen days following surgery; untreated controls rejected after ten days; p<0.001. Format: in vivo, mice.

Description: The ability of a combination therapy of rapamycin and Compound 1 to inhibit transplant rejection in a mouse model was tested. […] Following surgery, the mice were divided into the following treatment groups: • Group I is a control group that was untreated. • Group II was treated with Compound 1 at a dose of 75 mg/kg/day subcutaneously for fourteen days following surgery. • Group III was treated with rapamycin at a dose of 0.3 mg/kg/day intraperitoneally for three days following surgery. • Group IV was treated with Compound 1 at a dose of 75 mg/kg/day intraperitoneally for fourteen days following surgery and with rapamycin at a dose of 0.3 mg/kg/day intraperitoneally for three days following surgery.

With `N#Cc1cccc(C(C(=O)NCC(c2ccccc2)c2ccccc2)N(CCc2c[nH]cn2)C(=O)c2ccccc2C(=O)c2ccccc2)c1` (stereo not shown) [Compound 1], the “delay in the onset of rejection” value is reported as “two to three”.

For the origin of these results see patent US20100233158A1, “INDUCTION OF IMMUNE TOLERANCE” (Genzyme Corporation, priority 2002, published 2010).
